Like-named read-outs stand apart in the source and are kept apart here.
How the values were obtained:
[1] = Hydrolytic rate constants in aqueous buffered solution at pH 12, 37°C (HPLC); type: physicochemical; details: for observed First Order Hydrolytic Rate Constants (k) K ± S.E: average of three runs ± S.E.M.
Description: A high pressure liquid chromatography (HPLC) method was used for the determination of rate of hydrolysis of the newly prepared tropanyl esters in aqueous buffered solution at pH 12.0 and in human plasma.
(§1) The chromatographic analysis was performed in a system consisting of LCD/Milton Roy Consta Metric III metering pump and LCD UV III Monitor Detector operated at 254 nm. A 30 cm x 3.9 mm (internal diameter) reverse phase ASI/U Bondpak C18 column operated at ambient temperature was used for the analysis. The mobile phase consisted of 32% acetonitrile in 0.01 M potassium dihydrogen phosphate, 0.004 M 1-octanesulfonic acid, sodium in 0.1% acetic acid at a flow rate of 2.3 ml/min.
Sodium hydroxide and sodium dibasic phosphate were used to prepare the buffer at pH 12. The ionic strength was maintained at 0.1 M with sodium chloride.
One hundred microliters of a freshly prepared solution of the compound in methanol was added to 10 ml buffered solution, previously equilibrated to 37°C in a water bath and mixed thoroughly to make an initial concentration of 6 x 10⁻³ mol. liter⁻¹. Samples of 100 µl were injected into the column at various time intervals. […] A mobile phase of 40% acetonitrile was used to separate compounds 4 and 6 at a flow rate of 2.0 ml/min.
The previous method adapted for the hydrolysis of compounds 1, 2, 3 and 5 was used for the determination of rate of hydrolysis of compounds 4, 6 and 7. In case of compounds 4 and 6, the mobile phase is 40% acetonitrile, 0.01 M KH₂PO₄, 0.04M 1-octanesulfonic acid sodium salt and 0.1% HAC, at a flow rate 2 ml/min.

[2] = tested on: carbachol-induced spasms of strips of ileum; test: Anticholinergic activity in vitro: inhibition of carbachol-induced spasms of guinea pig ileum strips; type: cell-based; details: for Kb: Cavia porcellus
Description: The anticholinergic activity of all the new compounds was investigated in vitro by studying the inhibitory action of the drugs on carbachol-induced spasms of strips of ileum from freshly killed guinea pigs. The terminal ileum from guinea pig (200-500 g) was cut into 2-3 cm strips and suspended in freshly prepared Tyrode's solution in 40 ml organ bath. The solution was aerated with 95% oxygen and 5% carbon dioxide at 37°C. A tension of 1 g was applied to the tissue, and cumulative-response curves recorded with carbachol until constant responses were obtained. A concentration of the antagonist was then added to the bath and after 10 seconds, further concentration response curves to carbachol were established. This procedure was then repeated using increasing concentrations of the antagonist. EC₅₀ was calculated for carbachol alone and for carbachol in the presence of the various antagonist concentrations. Atropine was used as standard for comparison. The PA₂ was calculated as follows: PA₂ = log ((A)/(a)-1) -log [antagonist] [formula] A = EC₅₀ or carbachol in presence of the antagonist a = EC₅₀ for carbachol alone before adding antagonist

[3] = Enzymatic hydrolytic cleavage rates in human plasma at 37°C (HPLC); type: in vitro ADME; parameters: half-life: dose or concentration left out as unconfirmed; details: for half-life: read-out: half lives (t 1/2) (converted)
Description: as §1
Freshly collected plasma was used which contained about 80% plasma diluted with anticoagulant citrate phosphate dextrose solution, U.S.P.
A 100 µl volume of a freshly prepared solution of the compound in methanol was added to 10 ml plasma, previously equilibrated a 37°C in a water bath, and mixed thoroughly to result in an initial concentration of 6 x 10⁻³ mol. liter⁻¹. One ml samples of plasma were withdrawn from the test medium, mixed immediately with 3 ml ice cold acetonitrile, centrifuged and the supernatant analyzed by HPLC. The first order hydrolytic rate constant was determined by following the disappearance of the compound as function of time.

[4] = Hydrolysis of tertiary ethyl ester (2) and formation of its degradation product (7) at pH 12, 37°C (HPLC); type: physicochemical; parameters: dose or concentration left out as unconfirmed; details: 0.01 N NaOH pH at 37°C, read-out: t 1/2, hydrolysis (disappearance) of tertiary ethyl ester (2)
Description: The mobile phase used for the separation of compound (2) and its degradation product, the half ester (7) consisted of 32% MeCN, 0.01M KH₂PO₄, 0.004M 1-octanesulfonic acid sodium salt and 0.1% acetic acid. At flow rate of 1.5 ml/min (2) and (7) have retention times of 9 min and 4.6 min, respectively.
100 microliters of a freshly prepared solution of compound (2) in methanol was added to 10 ml buffered solution (pH 12), previously equilibrated to 37°C in a water bath to result in an initial concentration of 6 x 10⁻³ mol liter⁻¹. Samples of 1 ml were taken at time intervals and mixed with 3 ml of acetonitrile. 100 microliters of the collected samples were injected and disappearance of (2) and formation of (7) was followed by HPLC.

[5] = Enzymatic hydrolysis in rat liver homogenate at 37°C (HPLC); type: in vitro ADME, Sprague-Dawley rats; details: for Rates of hydrolysis in liver homogenate K ± S.E.: 20% rat liver homogenate; for half-life / half-life at 6000 µM: rat, liver homogenate
Description: The liver homogenate was prepared by the following method. Two Sprague-Dawley rats were killed by decapitation, and the livers were removed, weighed and homogenized in a tissue homogenizer in 0.11 M aqueous phosphate buffer, pH 7.4, to make 20% liver homogenate. The homogenate was centrifuged and the supernatant was used for the test. 100 l of 0.6 M solution of the ester in methanol was mixed with 10 ml of the homogenate, previously equilibrated to 37°C in a water bath, to result in an initial concentration of 6 x 10⁻³ mol/liter⁻¹. samples of 1.0 ml were withdrawn at time intervals from the medium, added immediately to 3 ml ice-cold acetonitrile, shaken vigorously, and placed in a freezer. When all samples had been collected, they were centrifuged, and each supernantant was analyzed by HPLC.

[6] = Hydrolysis of tropanyl hydrogen phenyl malonate (7) to the dibasic acid (8) at pH 12, 37°C (HPLC); type: physicochemical; details: 0.01 n naoh; 0.01 N sodium hydroxide, pH 12 at 37°C; read-out: t 1/2, hydrolysis (disappearance) of (7)
Description: The previously described method for the determination of rate of hydrolysis of compound (2) was followed for the determination of hydrolysis of compound (7).
The disappearance of compound (7) was followed by HPLC.
The concentration of the formed dibasic acid was determined by HPLC. 15% acetonitrile, 0.01M KH₂ PO₄ and 0.1% acetic acid was used as a mobile phase. At a flow rate of 2 ml/min, the product has a retention time of 4 min.
The collected samples after determination of rate of disappearance of compound (7) were used for the determination of rate of formation of the hydrolysis product (8). 100 microliters of the sample was injected and the formation of the product was followed by HPLC.

[7] = 0.01 N sodium hydroxide at pH 12.0, at 37°C
[8] = 0.01 n naoh buffer, 0.01 N sodium hydroxide at pH 12.0, at 37°C, read-out: half-life (t 1/2)
[9] = aqueous buffer, aqueous solution pH 12, 37°C, average of three runs, read-out: t 1/2 (Min) AQUEOUS SOLN, pH 12, 37°C
[10] = guinea pig ileum, against carbachol, average of two experiments (compounds 1 and 4: three), read-out: PA2 (converted)
[11] = pH 7.4, 20% rat liver homogenate, pH 7.4, 37°C, read-out: t 1/2 in liver homogenate
[12] = pH 7.4, rat liver homogenate, 37°C, average of three runs, read-out: t 1/2 (Min) RAT LIVER HOMOGENATE, 37°C
[13] = 0.01 m naoh buffer, 0.01 M sodium hydroxide at pH 12 and 37°C, read-out: half lives (t 1/2)
[14] = method of Example 19, quaternary methiodide soft esters, read-out: PA2 QUATERNARY AMINE (converted)

Row | SMILES | observed First Order Hydrolytic Rate Constants (k) K ± S.E [1, 7] | half-life [1, 8] [min] | half-life [1, 9] [min] | Kb [2, 10] [nM] | kobsd HUMAN PLASMA, 37°C [3] | observed first order hydrolytic rate constants (K) ± S.E.M. [3] | half-life ([3]; human plasma at 37°C) [h] | Rates of hydrolysis in liver homogenate K ± S.E. ([5]; pH 7.4, 37°C) | half-life [5, 11] [min] | half-life [5, 12] [min] | half-life [1, 13] [min] | other results
1 | COC(=O)C(C(=O)OC1CC2CCC(C1)N2C)c1ccccc1 (racemic) [Compound 1, Methyl (±)-α-(carboxy)-8-methyl-8-azabicyclo[3·2·1]oct-3-yl-benzeneacetate] | 1.43 ± 0.12 x 10^-1 min^-1 | 4.8 | 4.8 | 282 |  |  |  |  |  |  |  | 
2 | CCOC(=O)C(C(=O)OC1CC2CCC(C1)N2C)c1ccccc1 (racemic) [Compound 2, Ethyl (±)-α-(carboxy)-8-methyl-8-azabicyclo[3·2·1]oct-3-yl-benzeneacetate] | 16.9 ± 0.15 x 10^-2 min^-1 | 4.08 | 4.08 | 191 | 15.0 ± 0.3 x 10^-5 min^-1 | 15.0 ± 0.3 x 10^-5 min^-1 | 77.4 | 1.99 ± 0.996 x 10^-1 min^-1 | 3.48 | 3.48 |  | half-life [4]: 4.19 ± 0.14 min
3 | CC(C)OC(=O)C(C(=O)OC1CC2CCC(C1)N2C)c1ccccc1 (racemic) [Compound 3, isopropyl (±)-α-(carboxy)-8-methyl-8-azabicyclo[3·2·1]oct-3-yl-benzeneacetate] | 30 ± 0.77 x 10^-3 min^-1 | 22.8 | 22.8 | 28.2 | 6.27 ± 0.3 x 10^-5 min^-1 | 6.27 ± 0.3 x 10^-5 min^-1 | 186 | 97.2 ± 0.76 x 10^-3 min^-1 | 7.12 | 7.12 |  | 
4 | CN1C2CCC1CC(OC(=O)C(C(=O)OC1CCCCC1)c1ccccc1)C2 (racemic) [Compound 4, cyclohexyl (±)-α-(carboxy)-8-methyl-8-azabicyclo-[3.2.1]oct-3-yl-benzeneacetate] |  |  | 182 | 257 | 4.44 ± 0.4 x 10^-5 min^-1 | 4.44 ± 0.4 x 10^-5 min^-1 | 270 | 37.0 ± 0.3 x 10^-3 min^-1 | 18.7 | 18.7 | 182 | 
5 | CCOC(=O)C(C(=O)OC1CC2CCC(C1)[N+]2(C)C)c1ccccc1 (racemic) [Compound 5, Ethyl (±)-α-(carboxy)-8-methyl-8-azabicyclo[3·2·1]oct-3-yl benzeneacetate methiodide] |  | 0.85 | 0.85 | 13.8 |  |  | 82.2 | 10.5 ± 0.28 x 10^-2 min^-1 |  |  |  | observed first order hydrolytic rate constants (K) ± S.E.M. ([3]; human plasma at 37°C, compound 2 average of 4 runs, the rest 3 runs): 14.1 ± 0.6 x 10^-5 min^-1; Kb [2, 14]: 14.1 nM; half-life at 6000 µM [5, 11]: 6.6 min; half-life at 6000 µM [5, 12]: 6.6 min
6 | C[N+]1(C)C2CCC1CC(OC(=O)C(C(=O)OC1CCCCC1)c1ccccc1)C2 (racemic) [Compound 6, Cyclohexyl (±)-α-(carboxy)-8-methyl-8-azabicyclo-[3·2·1]oct-3-yl benzeneacetate methiodide] |  |  | 1.28 | 44.7 | 6.31 ± 0.8 x 10^-5 min^-1 | 6.31 ± 0.8 x 10^-5 min^-1 | 183 | 10.4 ± 0.23 x 10^-3 min^-1 | 66.8 | 66.8 | 1.28 | 
7 | CN1C2CCC1CC(OC(=O)C(C(=O)O)c1ccccc1)C2 (racemic) [Compound 7, (±)-α-(carboxy)-8-methyl-8-azabicyclo-[3·2·1]oct-3-yl benzeneacetic acid] |  |  | 350 | 631 |  |  |  |  |  |  | 350 | half-life [6]: 331 ± 4.31 min
8 | CC(C)OC(=O)C(C(=O)OC1CC2CCC(C1)[N+]2(C)C)c1ccccc1 (racemic) [VIc, isopropyl (±)-α-(carboxy)-8-methyl-8-azabicyclo[3·2·1]oct-3-yl-benzeneacetate methiodide] |  |  |  |  |  |  |  |  |  |  |  | Kb [2, 14]: 24.5 nM
9 | CN1[C@@H]2CC[C@H]1C[C@@H](OC(=O)C(CO)c1ccccc1)C2 (some centres unmarked) [Atropine, reference compound] |  |  |  |  |  |  |  |  |  |  |  | PA2 [2]: 8.29; PA2 TERTIARY AMINE [2]: 8.29

From patent EP0238982B1, “Anticholinergic compounds, pharmaceutical compositions and method of treatment” (UNIVERSITY OF FLORIDA, priority 1986, dated 1987)
